Experimental data from patent publication US20140309293A1, “CRYSTALLINE FORM” (L[…] INTE[…].P. A., priority 2011, published 2014).

Assay: accelerated stability test
Format: physicochemical
Settings: compared with the known crystalline forms of R-(+)-α-lipoic acid
Excerpt: Since it is a pharmaceutically active molecule which is notoriously very reactive and tends to polymerise, improved stability obviously represents a very important quality.

O=C(O)CCCCC1CCSS1 (stereo not drawn) [new crystalline form, R-(+)-α-lipoic acid]
stability of the crystalline form: more stable than the known crystalline forms
